In US8362018B2, “Substituted imidazo[1,2-a]pyrazine compounds useful for the treatment of viral infections” (Biofocus DPI, Ltd., priority 2007, dated 2013):

Legend:
HCV replicon = experiment: anti-viral assay (EC50), Table 13; format: cell-based; settings: Hepatitis C virus, anti-viral assays
Source text: The ability of a compound to inhibit HCV replication can be measured in vitro or using animal models using models and assays well known to those of skill in the art (e.g. Pietschmann et al, Clin Liver Dis. 7(1)c23-43, 2003). In vitro techniques for measuring the ability of a compound to inhibit HCV replication involve using HCV or an HCV replicon. Because HCV is difficult to grow in culture, particular in vitro techniques employ an HCV replicon.
An HCV replicon is an RNA molecule able to autonomously replicate in a cultured cell, such as Huh7. The HCV replicon expresses the HCV derived components of the replication machinery and contains cis-elements required for replication in a cultured cell. […]

[1] = cytotoxicity measurement (CC50), Table 13; format: cell-based; settings: human, Huh7 cells

SMILES | EC50 (HCV replicon) [µM] | CC50 [1] [µM]
Oc1ccc(-c2cnc3c(NCCc4ccncc4)nccn23)cc1 [Compound 2] | 1 to 20 | < 35
OCc1ccc(-c2cnc3c(NCCc4ccncc4)nccn23)cc1 [Compound 3] | > 20 | > 35
CS(=O)(=O)Nc1cccc(-c2cnc3c(NCCc4ccncc4)nccn23)c1 [Compound 4] | 1 to 20 | > 35
Oc1ccc(-c2cnc3c(NCc4ccncc4)nccn23)cc1 [Compound 5] | 1 to 20 | > 35
Oc1cccc(-c2cnc3c(NCc4ccncc4)nccn23)c1 [Compound 6] | 1 to 20 | > 35
COc1ccc(-c2cnc3c(NCc4cccnc4)nccn23)cc1OC [Compound 7] | 1 to 20 | > 35
NS(=O)(=O)c1ccc(CNc2nccn3c(-c4ccc5c(c4)OCO5)cnc23)cc1 [Compound 8] | 1 to 20 | < 35
COc1ccc(-c2cnc3c(NCc4ccc(S(N)(=O)=O)cc4)nccn23)cc1OC [Compound 9] | < 1 | > 35
NS(=O)(=O)c1ccc(CNc2nccn3c(-c4ccc(F)c(Cl)c4)cnc23)cc1 [Compound 10] | 1 to 20 | > 35
NS(=O)(=O)c1ccc(CNc2nccn3c(-c4ccc(F)cc4)cnc23)cc1 [Compound 11] | 1 to 20 | > 35
COc1cccc(-c2cnc3c(NCc4ccc(S(N)(=O)=O)cc4)nccn23)c1 [Compound 12] | 1 to 20 | > 35
COC(=O)c1ccc(CNc2nccn3c(-c4ccc(OC)c(OC)c4)cnc23)cc1 [Compound 13] | 1 to 20 | < 35
COc1ccc(-c2cnc3c(NCc4ccccc4)nccn23)cc1OC [Compound 14] | 1 to 20 | > 35
NS(=O)(=O)c1ccc(CNc2nccn3c(-c4ccc(OC(F)(F)F)cc4)cnc23)cc1 [Compound 15] | > 20 | > 35
COc1ccc(-c2cnc3c(NCc4ccc(S(N)(=O)=O)cc4)nccn23)cc1 [Compound 16] | 1 to 20 | > 35
COc1ccc(-c2cnc3c(NCCc4ccc(S(N)(=O)=O)cc4)nccn23)cc1OC [Compound 17] | 1 to 20 | < 35
CC(=O)c1cccc(-c2cnc3c(NCc4ccc(S(N)(=O)=O)cc4)nccn23)c1 [Compound 18] | 1 to 20 | > 35
COc1ccc(-c2cnc3c(NCc4ccc(S(C)(=O)=O)cc4)nccn23)cc1OC [Compound 19] | 1 to 20 | > 35
COc1cc(-c2cnc3c(NCc4ccc(S(N)(=O)=O)cc4)nccn23)ccc1O [Compound 20] | < 1 | < 35
COc1ccc(-c2cnc3c(NCc4ccc(NS(C)(=O)=O)cc4)nccn23)cc1OC [Compound 22] | 1 to 20 | > 35
COc1ccc(-c2cnc3c(NCc4cnccn4)nccn23)cc1OC [Compound 23] | 1 to 20 | > 35
Oc1ccc(-c2cnc3c(NCc4ccccc4)nccn23)cc1 [Compound 24] | 1 to 20 | < 35
NS(=O)(=O)c1ccc(CNc2nccn3c(-c4ccc(O)c(F)c4)cnc23)cc1 [Compound 25] | < 1 | > 35

SMILES | EC50 (HCV replicon) [µM] | CC50 [1] [µM]
COc1ccc(-c2cnc3c(NCCNC(C)=O)nccn23)cc1OC [Compound 26] | 1 to 20 | > 35
CC(=O)Nc1ccc(-c2cnc3c(NCc4ccc(S(N)(=O)=O)cc4)nccn23)cc1 [Compound 27] | 1 to 20 | > 35
CS(=O)(=O)Nc1ccc(-c2cnc3c(NCc4ccc(S(N)(=O)=O)cc4)nccn23)cc1 [Compound 28] | > 20 | > 35
COc1ccc(-c2cnc3c(NCC4CCOCC4)nccn23)cc1OC [Compound 29] | 1 to 20 | < 35
COc1ccc(-c2cnc3c(NCCCn4ccnc4)nccn23)cc1OC [Compound 30] | > 20 | > 35
COc1cc(-c2cnc3c(NCc4ccc(S(N)(=O)=O)cc4)nccn23)cc(Cl)c1O [Compound 31] | 1 to 20 | > 35
CS(=O)(=O)c1ccc(CNc2nccn3c(-c4ccc(O)cc4)cnc23)cc1 [Compound 32] | 1 to 20 | > 35
Cc1cc(O)ccc1-c1cnc2c(NCc3ccc(S(N)(=O)=O)cc3)nccn12 [Compound 33] | 1 to 20 | > 35
Oc1ccc(-c2cnc3c(NCc4ccc(Cl)cc4)nccn23)cc1 [Compound 34] | 1 to 20 | < 35
Cc1cccc(CNc2nccn3c(-c4ccc(O)cc4)cnc23)c1 [Compound 35] | 1 to 20 | < 35
Cc1ccccc1CNc1nccn2c(-c3ccc(O)cc3)cnc12 [Compound 36] | 1 to 20 | < 35
Oc1ccc(-c2cnc3c(NCc4ccccc4Cl)nccn23)cc1 [Compound 37] | 1 to 20 | > 35
Cc1ccc(CNc2nccn3c(-c4ccc(O)cc4)cnc23)cc1 [Compound 38] | 1 to 20 | > 35
Oc1ccc(-c2cnc3c(NCc4ccc(C(F)(F)F)cc4)nccn23)cc1 [Compound 39] | 1 to 20 | < 35
COc1ccc(CNc2nccn3c(-c4ccc(O)cc4)cnc23)cc1 [Compound 40] | 1 to 20 | > 35
Cc1cc(-c2cnc3c(NCc4ccc(S(N)(=O)=O)cc4)nccn23)cc(C)c1O [Compound 41] | 1 to 20 | < 35
N#Cc1ccc(CNc2nccn3c(-c4ccc(O)cc4)cnc23)cc1 [Compound 42] | 1 to 20 | < 35
COc1ccc(-c2cnc3c(NCCS(N)(=O)=O)nccn23)cc1OC [Compound 43] | > 20 | > 35
COc1ccc(-c2cnc3c(NCc4cccc(Cl)c4)nccn23)cc1 [Compound 44] | 1 to 20 | < 35
NS(=O)(=O)c1ccc(CNc2nccn3c(-c4ccc(CO)s4)cnc23)cc1 [Compound 45] | 1 to 20 | > 35
NS(=O)(=O)c1ccc(CNc2nccn3c(-c4ccc(CO)o4)cnc23)cc1 [Compound 46] | 1 to 20 | > 35
OCc1ccc(CNc2nccn3c(-c4ccc(O)cc4)cnc23)cc1 [Compound 47] | 1 to 20 | < 35
NC(=O)c1ccc(CNc2nccn3c(-c4ccc(O)cc4)cnc23)cc1 [Compound 48] | 1 to 20 | > 35

SMILES | EC50 (HCV replicon) [µM] | CC50 [1] [µM]
CNC(=O)c1ccc(CNc2nccn3c(-c4ccc(O)cc4)cnc23)cc1 [Compound 49] | 1 to 20 | < 35
Nc1ccc(-c2cnc3c(NCc4ccc(S(N)(=O)=O)cc4)nccn23)cc1 [Compound 50] | 1 to 20 | > 35
N#Cc1cc(-c2cnc3c(NCc4ccc(S(N)(=O)=O)cc4)nccn23)ccc1O [Compound 51] | > 20 | > 35
O=C(O)c1ccc(CNc2nccn3c(-c4ccc(O)cc4)cnc23)cc1 [Compound 52] | > 20 | > 35
NS(=O)(=O)c1ccc(CNc2nccn3c(-c4ccc(O)c([N+](=O)[O-])c4)cnc23)cc1 [Compound 54] | 1 to 20 | > 35
COc1ccc2cc(-c3cnc4c(NCc5ccc(S(N)(=O)=O)cc5)nccn34)ccc2c1 [Compound 55] | 1 to 20 | < 35
COc1cc(-c2cnc3c(NCc4cccc(S(N)(=O)=O)c4)nccn23)ccc1O [Compound 56] | < 1 | < 35
NS(=O)(=O)c1cccc(CNc2nccn3c(-c4ccc(O)c(F)c4)cnc23)c1 [Compound 57] | < 1 | > 35
Oc1ccc(-c2cnc3c(NCc4cccnc4)nccn23)cc1 [Compound 58] | 1 to 20 | < 35
Oc1ccc(-c2cnc3c(NCc4cccs4)nccn23)cc1 [Compound 59] | 1 to 20 | < 35
COc1cc(CNc2nccn3c(-c4ccc(O)cc4)cnc23)cc(OC)c1OC [Compound 60] | 1 to 20 | < 35
Oc1ccc(-c2cnc3c(NCc4ccc5c(c4)OCO5)nccn23)cc1 [Compound 61] | 1 to 20 | < 35
COc1ccc(-c2cnc3c(NCCc4ccncc4)nccn23)cc1OC [Compound 62] | 1 to 20 | < 35
CN1CCN(c2ccc(-c3cnc4c(Nc5cccc(OC(F)(F)C(F)F)c5)nccn34)cn2)CC1 [Compound 63] | 1 to 20 | < 35
COc1ccc(-c2cnc3c(Nc4ccc(N5CCOCC5)cc4)nccn23)cc1OC [Compound 64] | 1 to 20 | < 35
NS(=O)(=O)c1ccc(CNc2nccn3c(-c4cccc(O)c4)cnc23)cc1 [Compound 65] | 1 to 20 | < 35
COc1ccc(-c2cnc3c(NCc4cccs4)nccn23)cc1OC [Compound 66] | 1 to 20 | < 35
NS(=O)(=O)c1ccc(CNc2nccn3c(-c4cccc(F)c4)cnc23)cc1 [Compound 67] | 1 to 20 | < 35
COc1ccc(-c2cnc3c(NCc4ccco4)nccn23)cc1OC [Compound 68] | 1 to 20 | < 35
CC(C)c1ccc(Nc2nccn3c(-c4ccc(O)cc4)cnc23)cc1 [Compound 69] | 1 to 20 | < 35
CC(C)c1ccc(Nc2nccn3c(-c4cccc(NS(C)(=O)=O)c4)cnc23)cc1 [Compound 70] | 1 to 20 | < 35
CS(=O)(=O)Nc1cccc(-c2cnc3c(NCc4ccc(S(N)(=O)=O)cc4)nccn23)c1 [Compound 71] | 1 to 20 | < 35
CS(=O)(=O)Nc1cccc(-c2cnc3c(NCc4ccc5c(c4)OCO5)nccn23)c1 [Compound 73] | 1 to 20 | < 35
